The values below come from patent US6476019B1, “Spirocyclic ligands for sigma receptors, and libraries and methods of use thereof” (Sepracor Inc., priority 1999, dated 2002).

In brackets after ≈: the same amount, converted by molar mass. Like-named read-outs stand apart in the source and are kept apart here.

Data set [1] addresses T1, sigma-1 receptor (guinea pig brain) (Cavia porcellus, UniProt Q60492).
T1 construct: from tissue; host or cells: guinea pig brain
The experiment in a line: Antagonism of haloperidol binding to guinea pig sigma-1 receptors. The settings on record: sigma-1, guinea pig brain; for % Inhibition: test concentration not given.

A short description of another data set: Permeability. The settings on record: not told; read-out: Permeability PupperX10^6 cm/s. It is filed as in vitro ADME.
The target of data set [2] is T2, CYP1A2 (Homo sapiens, UniProt P05177).
T2 sequence (P05177 1-516): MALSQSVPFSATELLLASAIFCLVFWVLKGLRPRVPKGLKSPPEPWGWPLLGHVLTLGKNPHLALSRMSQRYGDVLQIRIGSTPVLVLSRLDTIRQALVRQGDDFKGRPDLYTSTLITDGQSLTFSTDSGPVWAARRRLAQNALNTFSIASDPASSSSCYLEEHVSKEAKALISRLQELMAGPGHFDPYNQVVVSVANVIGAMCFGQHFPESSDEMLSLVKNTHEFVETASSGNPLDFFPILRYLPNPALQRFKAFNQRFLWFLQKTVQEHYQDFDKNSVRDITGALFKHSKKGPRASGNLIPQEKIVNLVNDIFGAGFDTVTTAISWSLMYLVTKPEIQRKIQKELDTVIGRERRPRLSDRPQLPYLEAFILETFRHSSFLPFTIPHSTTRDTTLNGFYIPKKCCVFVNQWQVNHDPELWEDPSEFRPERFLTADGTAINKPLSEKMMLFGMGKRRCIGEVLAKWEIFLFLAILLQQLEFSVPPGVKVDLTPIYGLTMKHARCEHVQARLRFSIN

In a further data set the test system is GSH Level. The experiment in a line: Safety Assessment: GSH Level.
Another data set concerns RedOx State. The experiment in a line: Safety Assessment: RedOx State.
For a further data set, the system named is DNA Synthesis. The experiment in a line: Safety Assessment: DNA Synthesis.
The subject of the next data set is Cell Viability. The experiment in a line: Safety Assessment: Cell Viability.
The test system of the next data set is Protein Synthesis. The experiment in a line: Safety Assessment: Protein Synthesis.
The test system of another data set is Membrane Integrity. The experiment in a line: Safety Assessment: Membrane Integrity.
The subject of a further data set is Caspase-3. The experiment in a line: Safety Assessment: Caspase-3 Induction.
The target of a further data set is CYP2C9 (Homo sapiens, UniProt P11712). Nature of the data set: In Vitro Metabolism (isozymes of P450) CYP2C9.
Chain of CYP2C9 (P11712 whole entry): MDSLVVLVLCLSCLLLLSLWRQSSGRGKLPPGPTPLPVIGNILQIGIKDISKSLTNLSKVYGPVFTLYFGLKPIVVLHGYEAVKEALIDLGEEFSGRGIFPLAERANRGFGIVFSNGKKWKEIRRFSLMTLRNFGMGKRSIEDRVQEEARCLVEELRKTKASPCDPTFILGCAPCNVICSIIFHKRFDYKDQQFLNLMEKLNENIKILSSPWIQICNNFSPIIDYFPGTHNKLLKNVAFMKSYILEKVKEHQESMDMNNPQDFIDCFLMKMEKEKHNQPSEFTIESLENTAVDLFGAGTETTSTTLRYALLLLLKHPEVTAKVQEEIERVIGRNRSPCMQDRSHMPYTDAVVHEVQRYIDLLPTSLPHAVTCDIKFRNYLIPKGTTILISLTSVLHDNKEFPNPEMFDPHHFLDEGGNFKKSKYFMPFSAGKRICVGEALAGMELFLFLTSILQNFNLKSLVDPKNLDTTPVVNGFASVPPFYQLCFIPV
For the next data set, the target named is CYP2D6 (Homo sapiens, UniProt P10635). Nature of the data set: In Vitro Metabolism (isozymes of P450) CYP2D6.
Chain of CYP2D6 (P10635 whole entry): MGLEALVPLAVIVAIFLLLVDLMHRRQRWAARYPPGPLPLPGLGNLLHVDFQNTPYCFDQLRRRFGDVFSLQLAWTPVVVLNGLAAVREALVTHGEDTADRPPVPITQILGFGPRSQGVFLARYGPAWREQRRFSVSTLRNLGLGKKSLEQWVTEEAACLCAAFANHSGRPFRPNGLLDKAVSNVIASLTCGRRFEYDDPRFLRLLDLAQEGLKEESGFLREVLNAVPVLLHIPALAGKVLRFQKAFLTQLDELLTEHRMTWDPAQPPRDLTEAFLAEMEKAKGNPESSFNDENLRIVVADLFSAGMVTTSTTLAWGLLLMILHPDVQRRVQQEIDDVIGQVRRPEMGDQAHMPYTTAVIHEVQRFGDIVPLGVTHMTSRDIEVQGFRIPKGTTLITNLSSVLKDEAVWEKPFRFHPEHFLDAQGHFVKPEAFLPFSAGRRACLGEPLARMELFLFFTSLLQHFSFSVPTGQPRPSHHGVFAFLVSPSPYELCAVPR
A further data set deals with CYP3A4 (Homo sapiens, UniProt P08684). Nature of the data set: In Vitro Metabolism (isozymes of P450) CYP3A4.
Chain of CYP3A4 (P08684 whole entry): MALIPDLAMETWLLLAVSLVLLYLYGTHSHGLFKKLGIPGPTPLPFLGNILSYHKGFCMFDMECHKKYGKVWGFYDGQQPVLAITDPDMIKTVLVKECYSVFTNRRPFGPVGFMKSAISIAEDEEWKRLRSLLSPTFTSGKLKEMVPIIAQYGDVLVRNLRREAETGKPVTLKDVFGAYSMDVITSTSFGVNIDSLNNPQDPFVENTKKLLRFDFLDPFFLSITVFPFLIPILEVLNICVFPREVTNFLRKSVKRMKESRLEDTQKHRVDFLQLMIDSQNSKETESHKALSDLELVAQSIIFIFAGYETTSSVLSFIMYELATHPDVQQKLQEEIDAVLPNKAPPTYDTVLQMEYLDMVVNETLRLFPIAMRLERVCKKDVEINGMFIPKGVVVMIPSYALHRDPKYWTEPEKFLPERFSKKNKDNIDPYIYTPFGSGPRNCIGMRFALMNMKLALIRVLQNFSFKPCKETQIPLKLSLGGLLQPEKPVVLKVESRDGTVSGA
In another data set the target is CYP2C19 (Homo sapiens, UniProt P33261). The experiment in a line: In Vitro Metabolism (isozymes of P450) CYP2C19.
Chain of CYP2C19 (P33261 whole entry): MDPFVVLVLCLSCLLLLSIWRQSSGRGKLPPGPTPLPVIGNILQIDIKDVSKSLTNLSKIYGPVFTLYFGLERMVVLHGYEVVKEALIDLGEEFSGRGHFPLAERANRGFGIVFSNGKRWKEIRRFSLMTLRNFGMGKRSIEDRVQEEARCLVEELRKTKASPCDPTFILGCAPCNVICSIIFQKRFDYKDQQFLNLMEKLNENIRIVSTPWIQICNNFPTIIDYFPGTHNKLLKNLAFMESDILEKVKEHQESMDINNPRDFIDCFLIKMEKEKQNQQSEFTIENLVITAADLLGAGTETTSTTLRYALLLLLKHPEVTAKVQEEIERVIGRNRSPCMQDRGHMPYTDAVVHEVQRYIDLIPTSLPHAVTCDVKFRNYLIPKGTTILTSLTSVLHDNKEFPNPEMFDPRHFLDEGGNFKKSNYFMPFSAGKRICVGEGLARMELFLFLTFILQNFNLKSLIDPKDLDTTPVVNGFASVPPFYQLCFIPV
In data set [3] the test system is [3H]haloperidol binding sites in guinea pig brain. The conditions noted are these: cited from earlier work.
For another data set, the target named is sigma-1 receptors (Cavia porcellus, UniProt Q60492). The experiment in a line: Behavioral receptor assays: sigma-1. The conditions noted are these: guinea pig. It is filed as binding. As for the experimental part:
(§1) Various compounds of the present invention (19, 31, and 32) were evaluated in a group of assays based on mammalian cellular receptors associated with behavior. The group consisted of assays base on human dopamine D1, D2L, D3, D4.2, D4.4, D4.7, and D5 receptors, and the transporter; human serotonin 5-HT1A, 5-HT1B, 5-HT1D, 5-HT2A, 5-HT2B, 5-HT2C, 5-HT3, 5-HT5A, 5-HT6, and 5-HT7 receptors, and the human serotonin transporter; guinea pig 5-HT4 and sigma-1 receptors; rat sigma-2 and muscarinic receptors; and human NK1-3 receptors. The following table presents a subset of the results of these assays.

The target in another data set is human serotonin 5-HT2A (Homo sapiens, UniProt P28223). The experiment in a line: Behavioral receptor assays: 5-HT2A. The settings on record: read-out: Receptors (IC50) 5-HT2A. It is filed as binding. Here is the method:
as §1

The next data set relates to Male Wistar rats. Nature of the data set: MK-801-Induced Psychosis Model. The class given is in vivo, rat. The conditions noted are these: rat, 0.5, 1.0 and 5.0 mg/kg i.p.; MK-801 0.3 mg/kg i.p. The source says:
The non-competitive NMDA receptor antagonist MK-801 induces stereotypies and hyperactivity in rodents (1) by interacting with the NMDA receptor-associated ion channel. Phencyclidine, which also interferes with the NMDA receptor, produces psychotic effects in humans similar in many respects to schizophrenia. […] Therefore the MK-801-induced activity and stereotypies in rats may represent an appropriate animal model to test the potential efficacy of antipsychotic drugs.
Male Wistar rats (Iffa Crédo, St Germain/l'Arbresle, France), weight 250-300 g were housed 2 per cage on a 12 h/12 h light dark cycle (lights on at 7.00 a.m.) at a room temperature of 21±2° C. for a minimum of 5 days before testing. All animals had access to commercial food and tap water ad libitum.
On the day of the experiment, rats were treated with either reference drug vehicle, the reference drugs haloperidol or clozapine the test compound vehicle or test compounds. After administration, the rats were returned to their home cages for 15 minutes. […] The remaining rats treated with placebo received a second injection of vehicle. The standard injection volume was 2.0 ml/kg. After 10 minutes in the home cages, rats were transferred to the test box (Plexiglas, 29×12×12 cm), 5 minutes before the assessment for accomodation. The test box was cleaned with 70% ethanol before each assessment. Stereotypies, defined as wall-contacts with the snout, and locomotion, defined as turn-rounds of 180°, were assessed during 5 minute periods.

A further data set concerns the target human sigma receptor (Homo sapiens, UniProt Q99720). The experiment in a line: Human sigma receptor assay. The settings on record: read-out: IC50 Against Human Sigma Receptor. It is filed as binding. As for the experimental part:
(§2) The ability of test compounds to displace sigma ligands in vitro was determined by the methods of de Costa et al. (FEBS Lett. 251:53 (1989)) and De Haven-Hudkine et al. (Eur. J. Pharmacol. 227:372 (1992)) having guinea pig as a receptor source. Whereas, the methods of Gamapatju et al. (J. Pharm.&Exp. 289:251 (1999)) were utilized for human sigma receptors.

Data set [4] deals with T3, guinea pig sigma receptor (Cavia porcellus, UniProt Q60492).
T3 construct: having guinea pig as a receptor source; from tissue; host or cells: guinea pig
T3 sequence (Q60492 whole entry): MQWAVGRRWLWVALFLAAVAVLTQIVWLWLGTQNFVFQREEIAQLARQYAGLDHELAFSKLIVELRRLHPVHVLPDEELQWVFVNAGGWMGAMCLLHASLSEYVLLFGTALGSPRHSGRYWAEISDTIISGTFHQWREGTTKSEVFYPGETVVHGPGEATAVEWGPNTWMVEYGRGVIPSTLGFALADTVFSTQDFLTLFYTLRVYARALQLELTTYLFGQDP
The experiment in a line: Guinea pig sigma receptor assay. The class given is binding. The settings on record: read-out: IC50 Against Guinea Pig Sigma Receptor. As for the experimental part: as §2

Data set [5] deals with T2, CYP1A2. The experiment in a line: In Vitro Metabolism (isozymes of P450) CYP1A2.

T1 sequence (Q60492 whole entry): as above
Chain of human sigma receptor (Q99720 whole entry): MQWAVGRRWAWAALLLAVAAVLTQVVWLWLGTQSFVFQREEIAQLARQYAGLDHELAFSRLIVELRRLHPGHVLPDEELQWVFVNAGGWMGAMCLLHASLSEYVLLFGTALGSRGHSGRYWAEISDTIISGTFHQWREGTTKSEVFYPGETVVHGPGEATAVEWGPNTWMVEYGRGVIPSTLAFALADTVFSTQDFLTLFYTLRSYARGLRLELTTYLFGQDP
Chain of human serotonin 5-HT2A (P28223 whole entry): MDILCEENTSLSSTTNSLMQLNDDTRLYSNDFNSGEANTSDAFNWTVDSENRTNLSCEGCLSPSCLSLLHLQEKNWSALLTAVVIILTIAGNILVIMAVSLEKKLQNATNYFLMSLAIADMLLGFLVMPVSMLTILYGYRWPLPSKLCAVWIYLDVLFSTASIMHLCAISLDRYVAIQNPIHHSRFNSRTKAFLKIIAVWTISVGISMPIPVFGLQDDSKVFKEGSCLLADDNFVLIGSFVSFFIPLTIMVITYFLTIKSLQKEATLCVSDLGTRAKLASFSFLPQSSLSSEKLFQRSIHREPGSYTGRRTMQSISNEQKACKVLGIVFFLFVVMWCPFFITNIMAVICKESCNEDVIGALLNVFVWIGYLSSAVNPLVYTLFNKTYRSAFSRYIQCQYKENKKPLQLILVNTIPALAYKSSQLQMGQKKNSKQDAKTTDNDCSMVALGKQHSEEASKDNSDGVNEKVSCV
Chain of sigma-1 receptors (Q60492 whole entry): as the sequence (Q60492 whole entry) above

As to `O=C1CCC2(CCN(Cc3nc4ccccc4[nH]3)CC2)Nc2ccccc21` [Compound 21, 1′-(2-methylbenzimidazole)-3,4-dih drospiro[5H-1-benzazepine-2(1H)-4′-piperidin]-5-one], in [1], the IC50 was less than 1000 nM and the “% Inhibition” value is more than 50%. Also, in “Permeability”, the Papp is 1.95 ×10⁻⁶ cm/s. On CYP1A2 [2], the CYP1A2 worked out at 20 % inhibition. Besides, the “Log D7.5” value in the data set “Log D7.5” is listed as 1.22. Besides, the solubility in “Solubility” was determined as 210 µM (≈ 75.6 µg/mL). This molecule also returned a fraction unbound in “Protein Binding” of 0.01. Also, in the data set “Metabolic Stability”, the “Metabolic Stability (% parent remaining)” value is given as 17 % parent remaining. Besides, the “GSH Level (% Control)” value in the data set with GSH Level is less than 10 % Control. In addition, the “RedOx State” value in the data set on RedOx State amounted to 33 % inhibition. The “DNA Synthesis” value in the data set with DNA Synthesis is 29 % inhibition. For the same molecule, the “Cell Viability” value in the data set on Cell Viability is reported as less than 10 % inhibition. In addition, in the data set on Protein Synthesis, the “Protein Synthesis” value worked out at 14 % inhibition. For the same molecule, in the data set with Membrane Integrity, the “Membrane Integrity” value was less than 10 % inhibition. Also, the “Caspase-3 Induction % Induction” value with Caspase-3 is less than 10 % Induction. Besides, the CYP2C9 at CYP2C9 is on record as 19 % inhibition. At CYP2D6, this molecule had a CYP2D6 of 100 % inhibition. Further, the CYP3A4 on CYP3A4 turned out to be 69 % inhibition. On CYP2C19, this molecule had a CYP2C19 of 20 % inhibition.

For `CC(C)=CCN1CCC2(C)c3cc(O)ccc3CC1C2C` (single isomer, unassigned; (+)) [(+)-pentazocine], in data set [3], the “potency in displacing [3H]haloperidol relative to spiperone” value is given as “about 10 times”.

In the case of `O=C1CCC2(CCN(CCc3ccccc3)CC2)Nc2ccccc21` [Compound 19], in data set [1], the “% Inhibition” value is reported as more than 50%. Moreover, the half-maximal inhibitory concentration (IC50) was less than 100 nM against sigma-1 receptors and less than 1000 nM at human serotonin 5-HT2A.

Regarding `O[C@@H]1CCC2(CCN(Cc3ccc(F)cc3)CC2)Nc2ccccc21` [Compound 50], the Papp in “Permeability” turned out to be 25.8 ×10⁻⁶ cm/s. Besides, in the data set with Male Wistar rats, the MK-801-induced locomotion entry is given as “caused a reduction” and the MK-801-induced stereotypies result is on record as “caused a reduction”. On human sigma receptor, the IC50 was less than 1000 nM. Also, the IC50 in data set [4] was less than 100 nM. The “Log D7.5” value in “Log D7.5” came to 1.62. The same molecule had a solubility in the data set “Solubility” of 205 µM (≈ 69.8 µg/mL). In the data set “Protein Binding”, this molecule gave a fraction unbound of 0.38. Also, in the data set “Metabolic Stability”, the “Metabolic Stability (% parent remaining)” value is 87 % parent remaining. Moreover, the “GSH Level (% Control)” value in the data set on GSH Level is reported as less than 10 % Control. For the same molecule, the “RedOx State” value in the data set on RedOx State amounted to 12 % inhibition. In addition, the “DNA Synthesis” value in the data set on DNA Synthesis is reported as less than 10 % inhibition. In the data set on Cell Viability, the “Cell Viability” value was less than 10 % inhibition. For the same molecule, the “Protein Synthesis” value in the data set on Protein Synthesis is on record as less than 10 % inhibition. For the same molecule, the “Membrane Integrity” value with Membrane Integrity is given as less than 10 % inhibition. The “Caspase-3 Induction % Induction” value in the data set with Caspase-3 is reported as less than 10 % Induction. On CYP1A2 [5], this molecule displayed a CYP1A2 of 14 % inhibition. Also, the CYP2C9 at CYP2C9 came to 19 % inhibition. The molecule also came in with a CYP2D6 on CYP2D6 of 31 % inhibition. The molecule also returned a CYP3A4 at CYP3A4 of 19 % inhibition. Also, the CYP2C19 on CYP2C19 is 19 % inhibition.

`O[C@H]1CCC2(CCN(Cc3ccc(F)cc3)CC2)Nc2ccccc21` [Compound 49]: the Papp in the data set “Permeability” stood at 27.5 ×10⁻⁶ cm/s. Besides, in the data set on Male Wistar rats, the MK-801-induced locomotion result was “did not reduce” and the MK-801-induced stereotypies entry was “did not reduce”. In addition, at human sigma receptor, the IC50 is less than 100 nM. In data set [4], the IC50 was less than 100 nM. Besides, the “Log D7.5” value in the data set “Log D7.5” is 1.59. The molecule also displayed a solubility in the data set “Solubility” of 181 µM (≈ 61.6 µg/mL). In addition, the unbound share (fraction unbound) in “Protein Binding” is 0.37. For the same molecule, in the data set “Metabolic Stability”, the “Metabolic Stability (% parent remaining)” value came out at 69 % parent remaining. In addition, the “GSH Level (% Control)” value with GSH Level is recorded as less than 10 % Control. Also, in the data set on RedOx State, the “RedOx State” value is 15 % inhibition. In addition, in the data set on DNA Synthesis, the “DNA Synthesis” value is given as less than 10 % inhibition. Besides, in the data set with Cell Viability, the “Cell Viability” value is less than 10 % inhibition. The “Protein Synthesis” value in the data set on Protein Synthesis is on record as less than 10 % inhibition. In addition, in the data set on Membrane Integrity, the “Membrane Integrity” value is on record as less than 10 % inhibition. The “Caspase-3 Induction % Induction” value in the data set with Caspase-3 is reported as less than 10 % Induction. The CYP1A2 at CYP1A2 [5] was 13 % inhibition. The CYP2C9 at CYP2C9 is listed as 18 % inhibition. At CYP2D6, this molecule displayed a CYP2D6 of 44 % inhibition. Further, the CYP3A4 on CYP3A4 came out at 17 % inhibition. The molecule further showed a CYP2C19 on CYP2C19 of 19 % inhibition.
